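The compound was tested at five concentrations on cells cultured in 96-well plates, with a 48-hour exposure period. At the GI50, growth is halved. TGI denotes the concentration required for complete inhibition of growth.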
Key:
Test in all cases: NCI anticancer screen, dose series, 48 h
A549 NSCLC = tested on: A549 NSCLC
MCF7 breast = tested on: MCF7 breast
UACC-257 melanoma = tested on: UACC-257 melanoma
SK-MEL-28 melanoma = tested on: SK-MEL-28 melanoma
HCC-2998 colon = tested on: HCC-2998 colon
OVCAR-5 ovarian = tested on: OVCAR-5 ovarian
PC-3 prostate = tested on: PC-3 prostate
SR leukemia = tested on: SR leukemia
TK-10 renal = tested on: TK-10 renal
SK-OV-3 ovarian = tested on: SK-OV-3 ovarian

| Structure (SMILES) | GI50 (A549 NSCLC) [µM] | TGI (A549 NSCLC) [µM] | GI50 (MCF7 breast) [µM] | TGI (MCF7 breast) [µM] | GI50 (UACC-257 melanoma) [µM] | TGI (UACC-257 melanoma) [µM] | GI50 (SK-MEL-28 melanoma) [µM] | TGI (SK-MEL-28 melanoma) [µM] | GI50 (HCC-2998 colon) [µM] | TGI (HCC-2998 colon) [µM] | GI50 (OVCAR-5 ovarian) [µM] | TGI (OVCAR-5 ovarian) [µM] | GI50 (PC-3 prostate) [µM] | TGI (PC-3 prostate) [µM] | GI50 (SR leukemia) [µM] | TGI (SR leukemia) [µM] | GI50 (TK-10 renal) [µM] | TGI (TK-10 renal) [µM] | GI50 (SK-OV-3 ovarian) [µM] | TGI (SK-OV-3 ovarian) [µM] |
| --- | --- | --- | --- | --- | --- | --- | --- | --- | --- | --- | --- | --- | --- | --- | --- | --- | --- | --- | --- | --- |
| COc1cc(/C=C2\C[C@H]3[C@@H]4CC=C5C[C@@H](O)CC[C@]5(C)[C@H]4CC[C@]3(C)[C@H]2O)ccc1OCCN1CCCCC1 | 0.815 | 2.23 | 1.31 | 20.5 | 1.61 | 5.02 | 1.06 | > 50 | 0.85 | 1.64 | 1.03 | 2.6 | 1.03 | 7.01 | 1.11 | > 50 | 1.61 | 3.64 | – | – |
| NC(CCl)=NCC12CC3CC(CC(C3)C1)C2 | 0.792 | 15.7 | 0.557 | 6.9 | 1.75 | 5.27 | 1.58 | 15.5 | 1.65 | 7.84 | 3.73 | 11.1 | 2.05 | 13.3 | 0.116 | 0.706 | 1.31 | 9.14 | 4.1 | 16.7 |
| OCC#Cc1ccccc1C#Cc1ccc(C#Cc2ccccc2C#CCO)cc1 | 32.7 | > 100 | 26.3 | > 100 | 89.5 | > 100 | > 100 | > 100 | – | – | 30.4 | 75.9 | 30.7 | > 100 | 22 | 49.5 | 52.8 | > 100 | 55.4 | > 100 |
| N[C@@H](Cc1c[nH]c2ccccc12)C(=O)NC1CCN(Cc2c[nH]c3ccc(Cl)cc23)CC1 | 13.9 | 27.5 | 5.63 | 20.9 | – | – | 1.99 | 4.48 | 3.3 | 13.4 | 5.14 | 20.8 | 6.01 | 19.9 | 2.33 | 6.46 | 13.4 | 27.2 | 14.6 | 28.1 |
| C#Cc1cccc(Nc2nc(C)nc3cc(NC(=O)CCl)ccc23)c1 | 4.68 | 8.66 | 0.836 | 4.05 | 4.07 | 7.62 | 3.7 | 7.41 | 3.79 | 7.76 | 0.953 | 5.38 | 2.53 | 6.16 | 0.561 | 2.24 | 3.52 | 6.77 | 3.81 | 7.31 |
| CC(C)(C)c1cc[n+](C[n+]2ccc(C(C)(C)C)cc2)cc1 | – | > 100 | – | > 100 | – | – | – | > 100 | – | > 100 | – | > 100 | – | > 100 | – | > 100 | – | > 100 | – | > 100 |
| COc1ccc(NC(=O)c2ccc(C(F)(F)F)nc2Nc2ccc(Cl)cc2C)cc1Cl | 5.39 | 20.6 | 2.42 | 13.1 | 10.8 | 24 | 5.2 | 16.9 | – | – | 9.62 | 25.4 | 3.53 | 12.1 | 1.72 | 6.46 | 17.3 | 41.6 | 4.67 | 18.6 |
| N#Cc1c(N)c(C(=O)c2ccc3c(c2)OCCO3)n2c1CCCC2 | 4.27 | > 100 | 2.28 | > 100 | – | – | 4.5 | > 100 | 4.1 | > 93.1 | 8.82 | > 100 | 4.32 | > 100 | 0.869 | > 100 | > 28.5 | > 100 | 5.47 | > 38.3 |
| [Mn+3].[O-][Cl+3]([O-])([O-])O.[O-]c1ccccc1C=NCCN1CC1.[O-]c1ccccc1C=NCCN1CC1 | 38.6 | > 100 | 26.7 | > 100 | 18.1 | 46.2 | 35.8 | > 100 | – | – | 37.6 | > 100 | 19.9 | > 100 | 18.4 | 39.4 | 50.7 | > 100 | 35.2 | > 100 |
| CC1(C)CC[C@]2(C(=O)NCCNCCN)CC[C@]3(C)C(=CC[C@@H]4[C@@]5(C)CCC(=O)C(C)(C)[C@@H]5CC[C@]43C)[C@@H]2C1 | – | – | 1.55 | 3.08 | 1.86 | 3.85 | 1.75 | 3.2 | 1.73 | 3.18 | 1.98 | 4.56 | 1.82 | 3.61 | 1.7 | 4.76 | 1.91 | 4.1 | 2.56 | 6.09 |

— PubChem BioAssay (NCI)
